Experiment [1] concerns the target T1, P2Y purinoceptor 2 (Homo sapiens, UniProt P41231).
Description: Binding affinity to NanoLuc-fused P2Y2R (unknown origin) extracted from 1321N1 cell membrane incubated for 1 hr by NanoBRET assay
Experiment [2] has as its target T1, P2Y purinoceptor 2. Briefly: Displacement of 2-((5-(7-chloro-2-((3-((2-(5-(3-(5,5-difluoro-7,9-dimethyl-5H-4lambda4,5lambda4-dipyrrolo[1,2-c:2',1'-f][1,3,2]diazaborinin-3-yl)propanamido)pentanamido)ethyl)amino)-3-oxopropyl)amino)-4H-benzo[5,6]cyclohepta[1,2-d]thiazol-4-yl)-2-oxo-4-thioxo-3,4-dihydropyrimidin-1(2H)-yl)methyl)-N-(1H-tetrazol-5-yl)thiazole-4-carboxamide from NLuc fused P2Y2R (unknown origin) extracted from 1321N1 cell membrane incubated for 1 hr by NanoBRET assay.

Experiment [3] deals with T1, P2Y purinoceptor 2. The source holds these as a separate data set.
Description: Displacement of (E)-N6-(5-(bis(4-chlorophenyl)methyl)thiazol-2-yl)-N2-(6-(2-(4-(2-(5,5-difluoro-7-(thiophen-2-yl)-5H-4lambda4,5lambda4-dipyrrolo[1,2-c:2',1'-f][1,3,2]diazaborinin-3-yl)vinyl)phenoxy)acetamido)hexanoyl)-L-lysine from NLuc fused P2Y2R (unknown origin) extracted from 1321N1 cell membrane incubated for 1 hr by NanoBRET assay

T1 sequence (P41231 whole entry, the tested form may be a part): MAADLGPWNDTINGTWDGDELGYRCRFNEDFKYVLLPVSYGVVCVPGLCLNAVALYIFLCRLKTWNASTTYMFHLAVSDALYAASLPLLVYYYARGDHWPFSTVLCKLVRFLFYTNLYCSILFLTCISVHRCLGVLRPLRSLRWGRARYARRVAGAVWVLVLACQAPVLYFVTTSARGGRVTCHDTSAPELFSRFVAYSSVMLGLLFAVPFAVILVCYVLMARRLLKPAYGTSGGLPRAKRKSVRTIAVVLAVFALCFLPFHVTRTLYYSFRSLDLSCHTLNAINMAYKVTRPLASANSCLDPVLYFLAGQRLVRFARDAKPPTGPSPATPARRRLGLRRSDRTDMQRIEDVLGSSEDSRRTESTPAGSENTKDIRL

As for `O=C(COc1ccc(/C=C/C2=[N+]3C(=Cc4ccc(-c5cccs5)n4[B-]3(F)F)C=C2)cc1)NCCCCCC(=O)N[C@@H](CCCNc1ncc(C(c2ccc(Cl)cc2)c2ccc(Cl)cc2)s1)C(=O)O`, in experiment [1], binding was put at a Kd of 0.955 µM. Also, in experiment [2], the Ki is 3.31 µM.
`CN(C)c1ccc2c(-c3ccc(C(=O)N[C@@H](CCCNc4ncc(C(c5ccc(Cl)cc5)c5ccc(Cl)cc5)s4)C(=O)O)cc3C(=O)[O-])c3ccc(=[N+](C)C)cc-3oc2c1` had a dissociation constant Kd in experiment [1] of 4.17 µM.
The same measure, in the same setting: the result for `O=C(COc1ccc(/C=C/C2=[N+]3C(=Cc4ccc(-c5cccs5)n4[B-]3(F)F)C=C2)cc1)NCCCCCC(=O)N[C@@H](CCNc1ncc(C(c2ccc(Cl)cc2)c2ccc(Cl)cc2)s1)C(=O)O` reads 2.29 µM.
In experiment [2], `CCOCCNc1ncc(C(c2ccc(Cl)cc2)c2ccc(Cl)cc2)s1` showed a Ki of about 1000 µM.
For the molecule `CCOCCNc1nc2c(s1)C=Cc1cc(Cl)ccc1[C@@H]2c1cn(C)c(=O)[nH]c1=S` (racemic), in experiment [3], affinity was put at a Ki of 9.12 µM.

For orientation: Kd means a measure of binding affinity in units of concentration. High values mean a looser complex, low ones a tighter complex. What is called Ki is a measure of affinity in units of concentration, obtained from inhibition or displacement.

These data come from ChEMBL document CHEMBL5584275, “Design, Synthesis, and Evaluation of a New Chemotype Fluorescent Ligand for the P2Y2 Receptor” (ACS Med Chem Lett, 2024).
